The record followed here is patent US20250127723A1, “PHARMACEUTICAL COMPOSITION COMPRISING LARGE PHYSIOLOGICALLY ACTIVE SUBSTANCE AND EXCIPIENT” (priority 2021, published 2025).

In general, Cmax refers to the peak of the concentration-time curve.

Structures can show the parent of a compound that is named as a salt. Bridge positions count the residues as written; N and C are the ends. Square brackets hold non-standard residues; d marks the D form. Side chains are listed from the residue outwards. Ends that are not written are not given here. Lys‑B1 = not defined here; EG2 = not defined here; Aib = CC(C)(N)C(=O)O

A short description of data set [1]: Body weight change 24 hours after single oral administration of amylin derivatives. Format: in vivo. The settings on record: mice, bile acid absorption accelerator formulation. As for the experimental part: After a single oral administration of a formulation using a combination of a large physiologically active substance and excipients to mice, body weight changes were confirmed for 24 hours.

The test system of data set [2] is Caco-2 cell monolayer. The format is in vitro ADME. As for the experimental part:
Using the Caco-2 cell monolayer, changes in the permeability of markers for each permeation pathway due to excipients were evaluated using the following method. First, to form a Caco-2 cell monolayer, 1.5×10^5 cells per well were dispensed in a 12-Transwell plate and cultured for 3 to 4 weeks under 37° C. CO2 conditions. For the first week, the culture medium was changed once every two days, and thereafter, the culture medium was changed every three days. In the experiment, samples between 3 and 4 weeks after seeding were used. To verify the formation of a cell monolayer, TEER values and Lucifer yellow values were measured, and only cell monolayer membranes having a TEER value of 300 Ω·cm^2 or more and a measured transmittance of Lucifer yellow within 3% were used in the test. After the Transwells to be used for each test were washed using transport media (HBSS) and incubated in a 37° C. CO2 incubator for 1 hour, 500 μL of bile acid derivatives and permeability marker were added to the apical side, and 1.5 mL of drug-free transport media was treated onto the basolateral side, and incubation was performed for 2 hours in a 37° C. CO2 incubator thereafter. At this time, fluorescein isothiocyanate-dextran (FD4) was used as a paracellular marker, and metoprolol was used as a transcellular marker to confirm the change in permeability coefficient according to bile acid derivative treatment. […]

Data set [3] relates to monolayer membrane of Caco-2 cells. Put plainly: Tight junction openness by change in TEER value, Caco-2 monolayer. The settings on record: apical treatment, 0-120 min, FIG. 2. The format is cell-based. As for the experimental part:
First, to form a Caco-2 cell monolayer, 1.5×10^5 cells per well was dispensed in a 12-Transwell plate and cultured for 3 to 4 weeks under 37° C. CO2 conditions. For the first week, the culture medium was changed once every two days, and thereafter, the culture medium was changed every three days. In the experiment, samples between 3 and 4 weeks after seeding were used. To evaluate the degree of damage to the Caco-2 cell monolayer by excipients, the degree of cells cultured as a monolayer on a semi-permeable membrane was measured by the difference in electrical resistance between the apical side and the basolateral side. First, the Transwell to be used in each test is washed using a washing buffer (HBSS), replaced by culture medium, and equilibrated in a 37° C. CO2 incubator for 15 minutes. After adding 500 μL of the prepared excipient to the apical side and treating the basolateral side with 1.5 mL of culture medium containing no excipient, changes in TEER values were measured using a Millicell ERS-2 Voltohmmeter at each time point (0, 5, 15, 30, 45, 60, 90, 120 min) from the time of treatment.

The next data set has as its system Caco-2 cells. As for the experimental part: The cytotoxicity of excipients was evaluated using Caco-2 cells using the following method. First, to check the amount of intracellular accumulation, Caco-2 cells were distributed in a 96-well plate at 1×10^5 per well and cultured in a CO2 incubator at a temperature of 37° C. The culture solution from each well is removed and replacement by a new culture medium is performed. After that, […] of the prepared excipient was added and this was cultured in a CO2 incubator at 37° C. After 2 hours, each well was treated with 100 µL of luciferase reagent (Promega, #G7571) and incubated at room temperature. After 10 minutes, the luminescence value of each well was measured. […] [formula]

A short description of data set [4]: Weight loss, appetite suppression and anti-diabetic efficacy, oral Compound 17 formulation in obese mice. The format is in vivo, mice (C57BL/6). The settings on record: high-fat diet obese C57BL/6 mice; Compound 17 300 to 1000 nmol/kg oral daily 3 weeks; CDC 6.8, UDC 13.6, PG 13.6 mg/mL; FIGS. 11 to 13. As for the experimental part:
After oral administration of a formulation containing a large physiologically active substance (Compound 17) and excipients to mice, changes in mouse body weight and anti-diabetic efficacy were confirmed. Specifically, the administered dose of Compound 17 used 300 to 1000 nmol/kg, and the excipient concentrations in the administered formulation used CDC 6.8 mg/mL, UDC 13.6 mg/mL, and PG 13.6 mg/mL. The vehicle used 0.02% polysorbate 80 in 10 mM PBS (pH 7.4). Obese mice were induced by feeding high-fat diet to 6-week-old male mice (C57BL/6) for 16 weeks; then weight changes were confirmed by oral administration of the GLP-1/Glucagon receptor dual agonist (Compound 17), which combines biotin and fatty acid moieties, every day for 3 weeks using a bile acid absorption accelerator formulation.

In data set [5] the test system is Caco-2 cell monolayer. The format is in vitro ADME. The procedure:
First, to form a Caco-2 cell monolayer, 1.5×10^5 cells per well were dispensed in a 12-Transwell plate and this was cultured for 3 to 4 weeks under 37° C. CO2 conditions. For the first week, the culture medium was changed once every two days, and thereafter, the culture medium was changed every three days. In the experiment, samples between 3 and 4 weeks after seeding were used. To verify the formation of a cell monolayer, TEER values and Lucifer yellow values were measured; only cell monolayer membranes having a TEER value of 300 Ω·cm^2 or more and a measured transmittance of Lucifer yellow within 3% were used in the test. After washing the Transwell to be used for each test using transport media (HBSS), incubation was performed for 1 hour in a 37° C. CO2 incubator; then, 500 μL each of large physiologically active substance (50 μM) and bile acid derivatives (100 μM) were added to the apical side, and 1.5 mL of drug-free transport media was treated onto the basolateral side. Subsequently, incubation was performed for 2 hours in a 37° C. CO2 incubator.
[formula] • (*dCr-concentration of the permeated sample, dt-drug treatment time, Vr-basolateral volume, A-Transwell area, C0-initial applied drug concentration)
The source holds these as a separate data set.

Data set [6] in a line: Cmax after duodenal administration of Compounds 23 and 24. More on the design: species or system experimental rats. The settings on record: rat, in vivo; rats, duodenum; CDC 68 mg/kg, PG 34 mg/kg; Compound 23 5.4 mg/kg, Compound 24 6.2 mg/kg. The procedure:
A large physiologically active substance (Compound 24) was formulated by dissolving it in the corresponding vehicle (0.02% polysorbate 80 in 10 mM PBS (pH 7.4)) with the excipient composition shown in Table 6 above. After administering the above formulation to the duodenum of experimental rats, Cmax was compared. The corresponding results were compared with the results obtained by administering Compound 23, a large physiologically active substance without a biotin moiety, in the same formulation, and are shown in Table 7 below.

On to “29: Amylin, SEQ No. 15: KCNTATCATQRLADFLRHSSPNFGAIPSSTNVGSRTY; K1: Lys-B1 (K*) ([Lys‑B1]CNTATCATQRLADFLRHSSPNFGAIPSSTNVGSRTY; ends and bridges not checked) [Compound 29]”, for which the “body weight change after 24 hours” value in data set [1] is on record as “weight loss was confirmed”.

“32: Amylin, SEQ No. 16: KCNTATCATQRLADFLRHSSNNFGAIPSSTNVGSRTY; K1: Lys-B1 (K*) ([Lys‑B1]CNTATCATQRLADFLRHSSNNFGAIPSSTNVGSRTY; ends and bridges not checked) [Compound 32]”: in data set [1], the “body weight change after 24 hours” value is on record as “weight loss was confirmed”.

Take `C[C@H](CCC(=O)O)[C@H]1CC[C@H]2[C@@H]3[C@@H](O)C[C@@H]4C[C@H](O)CC[C@]4(C)[C@H]3CC[C@]12C` [UDC, Ursodeoxycholic acid or its salt]: the “effect on paracellular (FD4) and transcellular (metoprolol) transport” value in the data set with Caco-2 cell monolayer [2] is “no enhancing effect on the two transport mechanisms”. Moreover, in data set [3], the “tight junction openness according to the change in TEER value” is “non-tight junction openness”. Besides, the “cytotoxicity (cell viability)” value in the data set on Caco-2 cells was “least cytotoxicity”.

As to “Compound 17: GLP-1/GCGRA, SEQ No. 8: H-Aib-QGTFTSDYSKYLDEQAAKEFVQWLMNTK; (Lactam) between E16 and K20; K12: Lys-B1 (K*); K30: Lys-EG2-Glu-C18 (K*) (H-H[Aib]QGTFTSDYSKYLDEQAAKEFVQWLMNTK([EG2-Glu-C18]); lactam 16-20; not fully specified (residue 12); reading uncertain)”, in data set [4], the anti-diabetic efficacy entry is recorded as “anti-diabetic effect”, the body weight change result was “weight loss” and the feed intake entry was “reduction of feed intake”.

As for `C[C@H](CCC(=O)O)[C@H]1CC[C@H]2[C@@H]3[C@H](O)C[C@@H]4C[C@H](O)CC[C@]4(C)[C@H]3CC[C@]12C` [CDC, Chenodeoxycholic acid or its salt], the “effect of improving the permeability of large physiologically active substances” value in the data set with Caco-2 cell monolayer [5] is “had an effect of improving the permeability”. The “effect on paracellular (FD4) and transcellular (metoprolol) transport” value in the data set on Caco-2 cell monolayer [2] is “promotes both paracellular transport and transcellular transport”. The “cytotoxicity (cell viability)” value in the data set on Caco-2 cells is given as “similar”.

On to “26: Amylin, SEQ No. 14: KCNTATCATQRLANFLVHSSNNFGPILPPTNVGSNTY; K1: Lys-B1 (K*) ([Lys‑B1]CNTATCATQRLANFLVHSSNNFGPILPPTNVGSNTY; ends and bridges not checked) [Compound 26]”, for which, in data set [1], the “body weight change after 24 hours” value was “weight loss was confirmed”.

As for “36: Amylin, SEQ No. 17: RCNTATCATQRLADFLRHSSNNFGAIPSSTNVGSKTY; R1: αArg-EG2-Glu-C18 (*R); K35: Lys-B1 (K*) ({C18-Glu-EG2}-RCNTATCATQRLADFLRHSSNNFGAIPSSTNVGSKTY; not fully specified (some residues); ends and bridges not checked) [Compound 36]”, the “body weight change after 24 hours” value in data set [1] is given as “weight loss was confirmed”.

With `C[C@H](CCC(=O)O)[C@H]1CC[C@H]2[C@@H]3CC[C@@H]4C[C@H](O)CC[C@]4(C)[C@H]3C[C@H](O)[C@]12C` [DC, Deoxycholic acid or its salt], the “cytotoxicity (cell viability)” value in the data set with Caco-2 cells is listed as “similar”.

“33: Amylin, SEQ No. 16: KCNTATCATQRLADFLRHSSNNFGAIPSSTNVGSRTY; K1: αLys-EG2-Glu-C18 (*K); K1: Lys-B1 (K*) ({C18-Glu-EG2}-[Lys‑B1]CNTATCATQRLADFLRHSSNNFGAIPSSTNVGSRTY; not fully specified; ends and bridges not checked) [Compound 33]”: in data set [1], the “body weight change after 24 hours” value is listed as “weight loss was confirmed”.

For `CCCOC(=O)c1cc(O)c(O)c(O)c1` [PG, Propyl gallate], in data set [3], the “tight junction openness according to the change in TEER value” is listed as “non-tight junction openness”.

`CC[C@H](C)[C@H](NC(=O)[C@H](CCC(=O)O)NC(=O)[C@H](CO)NC(=O)[C@@H](NC(=O)[C@@H](N)CO)C(C)C)C(=O)N[C@@H](CCC(N)=O)C(=O)N[C@@H](CC(C)C)C(=O)N[C@@H](CCSC)C(=O)N[C@@H](Cc1cnc[nH]1)C(=O)N[C@@H](CC(N)=O)C(=O)N[C@@H](CC(C)C)C(=O)NCC(=O)N[C@@H](CCCCN)C(=O)N[C@@H](Cc1cnc[nH]1)C(=O)N[C@@H](CC(C)C)C(=O)N[C@@H](CC(N)=O)C(=O)N[C@@H](CO)C(=O)N[C@@H](CCSC)C(=O)N[C@@H](CCC(=O)O)C(=O)N[C@@H](CCCN=C(N)N)C(=O)N[C@H](C(=O)N[C@@H](CCC(=O)O)C(=O)N[C@@H](Cc1c[nH]c2ccccc12)C(=O)N[C@@H](CC(C)C)C(=O)N[C@@H](CCCN=C(N)N)C(=O)N[C@@H](CCCCN)C(=O)N[C@@H](CCCCN)C(=O)N[C@@H](CC(C)C)C(=O)N[C@@H](CCC(N)=O)C(=O)N[C@@H](CC(=O)O)C(=O)N[C@H](C(=O)N[C@@H](Cc1cnc[nH]1)C(=O)N[C@@H](CC(N)=O)C(=O)N[C@@H](Cc1ccccc1)C(=O)O)C(C)C)C(C)C` [Compound 23] had a Cmax in data set [6] of 30 ng/mL.

Turning to “30: Amylin, SEQ No. 15: KCNTATCATQRLADFLRHSSPNFGAIPSSTNVGSRTY; K1: αLys-EG2-Glu-C18 (*K); K1: Lys-B1 (K*) ({C18-Glu-EG2}-[Lys‑B1]CNTATCATQRLADFLRHSSPNFGAIPSSTNVGSRTY; not fully specified; ends and bridges not checked) [Compound 30]”, the “body weight change after 24 hours” value in data set [1] is on record as “weight loss was confirmed”.

“35: Amylin, SEQ No. 17: RCNTATCATQRLADFLRHSSNNFGAIPSSTNVGSKTY; K35: Lys-B1 (K*) (RCNTATCATQRLADFLRHSSNNFGAIPSSTNVGS[Lys‑B1]TY; ends and bridges not checked) [Compound 35]”: the “body weight change after 24 hours” value in data set [1] is reported as “weight loss was confirmed”.

As for “27: Amylin, SEQ No. 14: KCNTATCATQRLANFLVHSSNNFGPILPPTNVGSNTY; K1: αLys-EG2-Glu-C18 (*K); K1: Lys-B1 (K*) ({C18-Glu-EG2}-[Lys‑B1]CNTATCATQRLANFLVHSSNNFGPILPPTNVGSNTY; not fully specified; ends and bridges not checked) [Compound 27]”, the “body weight change after 24 hours” value in data set [1] is on record as “weight loss was confirmed”.
